Results on one compound are retold here after patent US9557338B2 (SIGNAL PHARMACEUTICALS, LLC, priority 2012, dated 2017).

Common to all, as to format: cell-based
One experiment deals with S6RP(S235/S236). The experiment in a line: Inhibition of S6RP(S235/S236) phosphorylation in cell lines. As to conditions: Homo sapiens, read-out: IC50 for inhibition of S6RP(S235/S236) phosphorylation.
Another experiment deals with Akt(S473). Briefly: Inhibition of Akt(S473) phosphorylation in cell lines. The settings on record: data not shown.
The subject of another experiment is Phospho-4E-BP1(T46). The experiment in a line: Luminex multiplex assay, Phospho-4E-BP1(T46). As to conditions: not inhibited up to concentrations tested; read-out: inhibition of 4E-BP1(T46) phosphorylation. The text has this:
Determination of Phospho-GSK3β(S9), Phospho-PRAS40(T246) and Phospho-4E-BP1(T46) and the Effect of Compound 1 or Rapamycin.
The multiplex Luminex assay format differs from conventional enzyme-linked immunosorbent assay (ELISA) in that the multiplex capture antibody is attached to a polystyrene bead whereas the ELISA capture antibody is attached to the microplate well. The use of the suspension bead-based technology enables the multiplexing capabilities of the Luminex assays. The xMAP® technology uses 5.6 micron polystyrene microspheres, which are internally dyed with red and infrared fluorophores of differing intensities. Each bead is given a unique number, or bead region, allowing differentiation of one bead from another. Beads covalently bound to different specific antibodies can be mixed in the same assay, utilizing a 96-well microplate format. At the completion of the sandwich immunoassay, beads can be read, using the Luminex 100™ or Luminex 200 detection system, in single-file by dual lasers for classification and quantification of each analyte. The Akt-Pathway Phospho 5-plex kit used was custom made and includes the ability to simultaneously measure p-GSK3β (S9), p-PRAS40(T246), and p-4E-BP1(T46).
Cells were plated at the required density. The cells were treated with either Compound 1 or rapamycin over a range of concentrations for 1 hour in 5% CO2 at 37° C. Compound 1 and rapamycin were used at the same concentrations as for the proliferation assay. As for the cell proliferation assay, a reference standard was included in the assay for PC3 cells and the coefficient of variation for assay of p-GSK3β(S9) was 37.8% (n=30), p-PRAS40(T246) was 27.8% (n=30) and for p4E-BP1(T46) was 13.5% (n=4). For three cell lines (HCT-116, MDA-MB-231 and HT29) in the assay for phosphorylation of GSK3β, PRAS40 and 4E-BP1, IGF-I stimulation (500 ng/mL, recombinant human IGF-I) for the last 10 min of incubation was used. The media was aspirated from the wells and the plate was placed on ice. Then 35 μL of Lysis Buffer was added to each well and incubated on ice for at least 30 minutes. During the incubation, the standard curve for each phosphoprotein was prepared. The standards provided were reconstituted and serial dilutions were prepared according to the manufacturer's instructions. At the end of the cell lysis step, […] of the lysate was transferred to a V-bottom plate and spun at 4° C. at 2000 rpm for 5 minutes. Both the 1× Luminex bead and 1× detector antibody solutions were prepared during this time. The 1× bead solution was vortexed and 25 μL was added into each well of a black round bottom plate. Then 50 μL of the 1× detector antibody was added to each well. Fifty microliters (50 μL) of the prepared standards were added to the designated wells. Then 25 μL of the assay diluent was added to each well designated for the compound-treated cell lysates. At the end of the spin, 25 μL of cell lysate was added to the corresponding wells of the black assay plate. The assay plate was covered with the white plate lid and incubated for 3 hours at room temperature on an orbital shaker.
Approximately 10-15 minutes prior to the end of the first incubation, the secondary antibody solution was prepared according to the vendor's protocol. Goat anti-rabbit R-phycoerythrin red fluorescent protein (RPE) supplied as a 10× concentrate was diluted to generate a 1× goat anti-rabbit RPE stock. The 96-well filter plate was pre-wet with 200 μL of 1× Working wash solution. At the end of the 3 hour incubation, a multichannel pipette was used to transfer the entire contents from each assay well into the wells of the filter plate. The liquid from the wells was removed by aspiration with the vacuum manifold. Then 200 μL of 1× Working wash solution was added into each well. The wash solution was aspirated using the vacuum manifold after 15-30 seconds. This wash step was repeated one time. The bottom of the plate was blotted on clean paper towels to remove residual liquid. […]

Read-outs that look alike come from different tables or passages of the source.

Turning to `CO[C@H]1C[C@@H]2CC[C@@H](C)[C@@](O)(O2)C(=O)C(=O)N2CCCC[C@H]2C(=O)O[C@H]([C@H](C)C[C@@H]2CC[C@@H](O)[C@H](OC)C2)CC(=O)[C@H](C)/C=C(\C)[C@@H](O)[C@@H](OC)C(=O)[C@H](C)C[C@H](C)/C=C/C=C/C=C/1C` [rapamycin, reference compound], the IC50 is 0.029 nM in the experiment on S6RP(S235/S236) (HCT-116, HCT116 cell line); 0.019 nM with S6RP(S235/S236) (PC-3, PC3 cell line); greater than 10000 nM in the experiment with Phospho-4E-BP1(T46). The “inhibition of the phosphorylation of Akt(S473)” value in the experiment on Akt(S473) is “did not inhibit”.
